Data: US8580918B2, “Peptidic GLP-2 agonists” (Ferring B.V., priority 2009, dated 2013)
Read-outs that look alike come from different tables or passages of the source. Where a SMILES comes first, the peptide text is derived from it. Where no end group is shown, it is not given here. [ ]: non-standard residue; d: D form. d2Thi = N[C@H](Cc1cccs1)C(=O)O; Nle = CCCC[C@H](N)C(=O)O

Assays:
[1] = Pharmacokinetics in rats after intravenous bolus injection (systemic clearance); assay type: in vivo; details: rat, adult male Sprague-Dawley rats, i.v. bolus, read-out: CL (ml/kg/min) Average
Summary of the method: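 Adult male Sprague-Dawley rats (3-4, doubly cannulated) given IV jugular bolus at 0.1-1.0 mg/kg; serial carotid blood to K2EDTA plasma, LC/MS/MS quantitation. CL = dose/kg divided by AUC∞ (noncompartmental, trapezoid); mean ± SD.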

[2] = in humans; cited from earlier work
[3] = plasma, 0.2 mg FB/kg, dose 0.20 mg FB/kg

Row | Molecule | clearance [1, 3] [mL/kg/min] | clearance ([1]; plasma, dose 1.0 mg FB/kg) [mL/kg/min] | half-life (t1/2) [2] [min] | clearance ([1]; in vivo, dose 0.20 mg FB/kg) [mL/kg/min]
1 | CCCC[C@H](NC(=O)[C@H](CCC(=O)O)NC(=O)[C@H](CC(=O)O)NC(=O)[C@H](CO)NC(=O)[C@H](Cc1ccccc1)NC(=O)[C@H](CO)NC(=O)CNC(=O)[C@H](CC(=O)O)NC(=O)CNC(=O)[C@@H](N)Cc1c[nH]cn1)C(=O)N[C@H](Cc1cccs1)C(=O)N[C@H](C(=O)N[C@H](C(=O)N[C@@H](CC(C)C)C(=O)N[C@@H](CC(=O)O)C(=O)N[C@@H](Cc1ccccc1)C(=O)N[C@@H](CC(C)C)C(=O)N[C@@H](C)C(=O)N[C@@H](C)C(=O)N[C@@H](CCCNC(=N)N)C(=O)N[C@@H](CC(=O)O)C(=O)N[C@@H](Cc1ccccc1)C(=O)N[C@H](C(=O)N[C@@H](CC(N)=O)C(=O)N[C@@H](Cc1c[nH]c2ccccc12)C(=O)N[C@@H](CC(C)C)C(=O)N[C@H](C(=O)N[C@@H](CCC(N)=O)C(=O)N[C@H](C(=O)N[C@@H](CCCCN)C(=O)N[C@H](C(=O)N[C@H](C(=O)N[C@@H](CC(=O)O)C(N)=O)[C@@H](C)O)[C@@H](C)CC)[C@@H](C)O)[C@@H](C)CC)[C@@H](C)CC)[C@@H](C)CC)[C@@H](C)O [Compound 68, [Gly2,Nle10,D-Thi11,Phe16] hGLP-2(1-33)-NH2] (H-HGDGSFSDE[Nle][d2Thi]TILDFLAARDFINWLIQTKITD-NH2) | 0.15 | – | – | –
2 | CC[C@H](C)[C@H](NC(=O)[C@H](Cc1ccccc1)NC(=O)[C@H](CC(=O)O)NC(=O)[C@H](CCCN=C(N)N)NC(=O)[C@H](C)NC(=O)[C@H](C)NC(=O)[C@H](CC(C)C)NC(=O)[C@H](CC(N)=O)NC(=O)[C@H](CC(=O)O)NC(=O)[C@H](CC(C)C)NC(=O)[C@@H](NC(=O)[C@@H](NC(=O)[C@H](CC(N)=O)NC(=O)[C@H](CCSC)NC(=O)[C@H](CCC(=O)O)NC(=O)[C@H](CC(=O)O)NC(=O)[C@H](CO)NC(=O)[C@H](Cc1ccccc1)NC(=O)[C@H](CO)NC(=O)CNC(=O)[C@H](CC(=O)O)NC(=O)[C@H](C)NC(=O)[C@@H](N)Cc1cnc[nH]1)[C@@H](C)O)[C@@H](C)CC)C(=O)N[C@@H](CC(N)=O)C(=O)N[C@@H](Cc1c[nH]c2ccccc12)C(=O)N[C@@H](CC(C)C)C(=O)N[C@H](C(=O)N[C@@H](CCC(N)=O)C(=O)N[C@H](C(=O)N[C@@H](CCCCN)C(=O)N[C@H](C(=O)N[C@H](C(=O)N[C@@H](CC(=O)O)C(=O)O)[C@@H](C)O)[C@@H](C)CC)[C@@H](C)O)[C@@H](C)CC [hGLP-2, reference compound] | – | 24.6 | 10 | –
3 | CC[C@H](C)[C@H](NC(=O)[C@H](Cc1ccccc1)NC(=O)[C@H](CC(=O)O)NC(=O)[C@H](CCCNC(=N)N)NC(=O)[C@H](C)NC(=O)[C@H](C)NC(=O)[C@H](CC(C)C)NC(=O)[C@H](CC(N)=O)NC(=O)[C@H](CC(=O)O)NC(=O)[C@H](CC(C)C)NC(=O)[C@@H](NC(=O)[C@@H](NC(=O)[C@H](CC(N)=O)NC(=O)[C@H](CCSC)NC(=O)[C@H](CCC(=O)O)NC(=O)[C@H](CC(=O)O)NC(=O)[C@H](CO)NC(=O)[C@H](Cc1ccccc1)NC(=O)[C@H](CO)NC(=O)CNC(=O)[C@H](CC(=O)O)NC(=O)CNC(=O)[C@@H](N)Cc1c[nH]cn1)[C@@H](C)O)[C@@H](C)CC)C(=O)N[C@@H](CC(N)=O)C(=O)N[C@@H](Cc1c[nH]c2ccccc12)C(=O)N[C@@H](CC(C)C)C(=O)N[C@H](C(=O)N[C@@H](CCC(N)=O)C(=O)N[C@H](C(=O)N[C@@H](CCCCN)C(=O)N[C@H](C(=O)N[C@H](C(=O)N[C@@H](CC(=O)O)C(=O)O)[C@@H](C)O)[C@@H](C)CC)[C@@H](C)O)[C@@H](C)CC [teduglutide, [Gly2]hGLP 2, reference compound] | 9.9 | 8 | – | –
4 | HGEGSFSSELSTILDALAARDFIAWLIATKITDKKKKKK-NH2 (C-terminus assumed) [ZP-1846, reference compound] | – | – | – | 2.8
5 | HGEGTFSSELATILDALAARDFIAWLIATKITDKKKKKK-NH2 [ZP-1848, reference compound] | 2.4 | – | – | –
